Measured values: patent US6624143B1, “Calcium salts of lipopeptide antibiotics, method for producing same and their use” (Aventis Pharma Deutschland GmbH, priority 1998, dated 2003)
Structures can show the parent of a compound that is named as a salt. Where two headings read alike, the source gives them in different places.

What was measured:
Type in all cases: cell-based
monkey blood = conditions: rhesus monkey, 3 h
Experimental: For the measurement of hemolytic activity, freshly taken, venous human, Rhesus monkey or beagle dog blood is used. The blood is collected in heparinized tubes and distributed in aliquots of 200 μl into 12 polyethylene tubes. One aliquot is treated with 200 μl of distilled water and used as a 100% standard, another is mixed with 200 μl of physiological saline solution (0.9% NaCl). 200 μl each of substance dilutions in physiological saline solution to 1600, 800, 400, 200, 100, 50, 25, 12.5, 6.25 and 3.125 mg/l are distributed into the other tubes. All tubes are carefully swung and then incubated for 3 hours at 37° C. The 100% standard is then made up with 5 ml of distilled water, the other tubes with 5 ml each of physiological saline solution, and centrifuged at 700 g for 5 minutes.
The hemolysis is determined by measurement of the absorption of the supernatant in a spectrophotometer at a wavelength of 540 nm. The absorption of the standard with complete hemolysis is set at 100%. The absorption of the test preparation dilutions and of the 0% standard are measured and indicated as a percentage of the maximally inducible hemolysis.

Enteroc. faecium, AP9 = test: serial dilution test, MIC; conditions: vanR, teiR
Text: (§1) Table 3: In-vitro activity of the A1437D Ca salt against Gram-positive bacteria in the serial dilution test indicated as the minimum inhibitory concentration (MIC)

[1] = tested on: Streptoc. pneumoniae 30B12; test: serial dilution test, MIC; conditions: eryR
Text: as §1

Staph. aureus, 11DU5 = test: serial dilution test, MIC; conditions: Staphylococcus aureus, novR, tetR
Text: as §1

Staph. aureus, 11CB20 = test: serial dilution test, MIC; conditions: Staphylococcus aureus, oxaR, eryR, tetR
Text: as §1

Staphyloc. aureus, 11HT3 = test: serial dilution test, MIC; conditions: S
Text: as §1

Enteroc. faecalis, UC5 = test: serial dilution test, MIC; conditions: ATCC 29212 novR
Text: as §1

[2] = tested on: Staphyloc. coagul. negativ; test: serial dilution test, MIC; conditions: oflR, oxaR, tetR
Text: as §1

Enteroc. faecium, HM3 = test: serial dilution test, MIC; conditions: teiR, vanR, eryR
Text: as §1

[3] = tested on: Staph. aureus, ATCC 13709; test: serial dilution test, MIC; conditions: Staphylococcus aureus, ATCC13709
Text: as §1

Streptoc. milleri, GR12 = test: serial dilution test, MIC; conditions: S
Text: as §1

Staph. aureus, 11GO64 = test: serial dilution test, MIC; conditions: Staphylococcus aureus, oflR, oxaR, eryR, novR
Text: as §1

Staph. aureus, 11HT1 = test: serial dilution test, MIC; conditions: Staphylococcus aureus, novR
Text: as §1

Staph. epidermidis, GO42 = test: serial dilution test, MIC; conditions: Staphylococcus epidermidis, oxaR
Text: as §1

[4] = tested on: Streptoc. pyogenes, A1F16; test: serial dilution test, MIC; conditions: eryR
Text: as §1

Enteroc. faecalis, HM9 = test: serial dilution test, MIC; conditions: novR, vanR, eryR
Text: as §1

Staph. epidermidis, GO20 = test: serial dilution test, MIC; conditions: Staphylococcus epidermidis, tetR
Text: as §1

Streptoc. gr. G, GOCB2 = test: serial dilution test, MIC; conditions: tetR, rifR, novR
Text: as §1

Enteroc. faecium, HT12 = test: serial dilution test, MIC; conditions: teiR, vanR, eryR, tetR
Text: as §1

[5] = tested on: Enteroc. gallinarium, HM8; test: serial dilution test, MIC; conditions: vanR, tetR
Text: as §1

[6] = tested on: Streptoc. pyogenes, A1SJ1; test: serial dilution test, MIC; conditions: eryR
Text: as §1

Streptoc. mitis, GR16 = test: serial dilution test, MIC; conditions: eryR
Text: as §1

Enteroc. faecium, IP2 = test: serial dilution test, MIC; conditions: teiR, vanR, eryR, tetR
Text: as §1

Enteroc. faecalis, DU18 = test: serial dilution test, MIC; conditions: tetR, novR
Text: as §1

MIC (Enteroc. faecium, AP9): 0.6 µg/mL
MIC [1]: 0.3 µg/mL
MIC (Staph. aureus, 11DU5): 0.08 µg/mL
MIC (Staph. aureus, 11CB20): 0.6 µg/mL
MIC (Staphyloc. aureus, 11HT3): 0.04 µg/mL
MIC (Enteroc. faecalis, UC5): 2.5 µg/mL
MIC [2]: 0.3 µg/mL
MIC (Enteroc. faecium, HM3): 0.6 µg/mL
MIC [3]: 0.6 µg/mL
MIC (Streptoc. milleri, GR12): 0.3 µg/mL
MIC (Staph. aureus, 11GO64): 0.6 µg/mL
MIC (Staph. aureus, 11HT1): 0.15 µg/mL
MIC (Staph. epidermidis, GO42): 0.3 µg/mL
MIC [4]: 0.6 µg/mL
MIC (Enteroc. faecalis, HM9): 2.5 µg/mL
MIC (Staph. epidermidis, GO20): 0.3 µg/mL
MIC (Streptoc. gr. G, GOCB2): 0.3 µg/mL
MIC (Enteroc. faecium, HT12): 0.6 µg/mL
MIC [5]: 0.15 µg/mL
MIC [6]: 0.6 µg/mL
MIC (Streptoc. mitis, GR16): 0.3 µg/mL
MIC (Enteroc. faecium, IP2): 0.6 µg/mL
MIC (Enteroc. faecalis, DU18): 0.6 µg/mL
Structure (SMILES): CC(C)CCCCCCC/C=C\CC(=O)N[C@@H](CC(N)=O)C(=O)N[C@@H]1C(=O)N2CCCC[C@@H]2C(=O)N[C@@H]([C@H](C)C(=O)O)C(=O)N[C@@H](CC(=O)O)C(=O)NCC(=O)N[C@@H](CC(=O)O)C(=O)NCC(=O)N[C@H]([C@@H](C)N)C(=O)N[C@@H](C(C)C)C(=O)N2CCC[C@H]2C(=O)N[C@@H]1C [A1437D Ca salt]
in vitro hemolysis, percentage of the maximally inducible hemolysis (monkey blood; 12.5 mg/l): 0%
in vitro hemolysis, percentage of the maximally inducible hemolysis (monkey blood; 25 mg/l): 0%
in vitro hemolysis, percentage of the maximally inducible hemolysis (monkey blood; 50 mg/l): 0%
in vitro hemolysis, percentage of the maximally inducible hemolysis (monkey blood; 100 mg/l): 3%
in vitro hemolysis, percentage of the maximally inducible hemolysis (monkey blood; 200 mg/l): 6%
in vitro hemolysis, percentage of the maximally inducible hemolysis (monkey blood; 400 mg/l): 9%
in vitro hemolysis, percentage of the maximally inducible hemolysis (monkey blood; 800 mg/l): 15%
in vitro hemolysis, percentage of the maximally inducible hemolysis (monkey blood; 1600 mg/l): 19%
